Data from US20110087015A1, “Nucleoside and nucleotide having an unnatural base and use thereof” (priority 2003, published 2011).
Entries after “also recorded” stand apart in the source; their conditions may differ. Like-named read-outs stand apart in the source and are kept apart here.

Columns and labels:
T7 RNA polymerase = target: T1, T7 RNA polymerase (Escherichia phage T7, UniProt P00573); assay: Site-selective introduction of ryTP into RNA through transcription; assay type: biochemical; conditions: for incorporation efficiency of the substrate y into RNA (transcription efficiency): one unnatural base in template (vT or sT), compared to natural base pairing (AT); for transcription efficiency, two y substrates incorporated into RNA: two adjacent unnatural bases in template (NN=vv or NN=ss)
T1 construct: purchased TAKARA SHUZO CO., LTD (TaKaRa)
Protocol: This example was intended to study site-selective introduction of ryTP into RNA through transcription reaction. […] The DNA primer required for the transcription reaction had the following sequence.
A template and T7prim21 were mixed in 10 mM Tris-HCl (pH 7.6) containing 10 mM NaCl and annealed into a double-stranded form for use in the transcription reaction (FIG. 14). The T7 transcription reaction was performed on 20 μl scale using an enzyme from TAKARA SHUZO CO., LTD [T. Ohtsuki et al., Proc. Natl. Acad. Sci. USA, 98, 4922-4925 (2001)]. More specifically, the transcription reaction was accomplished by incubation at 37° C. for 3 hours in a reaction solution containing 40 mM Tris-HCl pH 8.0, 5 mM DTT, 24 mM MgCl2, 2 mM spermidine, 0.01% TritonX-100, 10 mM GMP, 1 mM NTPs (N=G, C, U, with or without ryTP, as shown in FIGS. 15 and 16), 2 μCi [α-^32P]ATP, 2 μM double-stranded DNA (template and T7prim21), and 2.5 U/μl T7 RNA polymerase (TaKaRa). If the transcription reaction proceeds completely, an RNA product having the following full-length sequence can be obtained.
The reaction solutions were each supplemented with an equal volume of a 10 M urea-containing BPBdye solution and heated at 75° C. for 3 minutes to stop the reaction, followed by electrophoresis on a 20% polyacrylamide-7 M urea gel to confirm products of the transcription reaction. The [α-^32P]ATP-labeled reaction products were analyzed with a bioimaging analyzer (BAS2500, Fuji Photo Film Co., Ltd., Japan). The incorporation efficiency of the substrate y into RNA when using the sT-containing template in transcription with T7 RNA polymerase (FIG. 14) was about 50% to 60%, as compared to natural base pairing (AT). In contrast, when using the vT-containing template, the incorporation efficiency of the substrate y was 96%, which was as high as that of natural base pairing (FIG. 15).

[1] = target: T2, Klenow fragment (KF exo−) (Escherichia coli, UniProt P00582, D355A/E357A); assay type: biochemical, E. coli; conditions: for efficiency (Vmax/Km) / Km / Vmax: template base N = label; for Vmax: normalized to enzyme concentration 20 nM
T2 construct: Large fragment of DNA polymerase Exonuclease-free Klenow enzyme (Cloned) (Amersham USB); purchased Amersham USB
Source text: This example was intended to analyze reaction rate constants in the same Klenow fragment-mediated single nucleotide insertion reaction as shown in Example 2.
More specifically, the reaction primer used was a primer whose 5′-end was fluorescently labeled with 6-FAM (SEQ ID NO: 1, FIG. 10). The primer whose 5′-end was fluorescently labeled was purchased from Applied Biosystems among those commercially available as custom fluorescent primers for GeneScan, and purified by gel electrophoresis. The analysis of reaction products was performed with a DNA sequencer (Applied Biosystems; model ABI377).
Reaction conditions: Template DNA (SEQ ID NO: 2 or 3) (10 μM) and the fluorescently-labeled primer (10 μM), each of which had been dissolved in 2× reaction buffer (100 mM Tris-HCl pH 7.5, 20 mM MgCl2, 2 mM DTT, 100 μg/ml BSA), were heated at 95° C. for 3 minutes and then annealed by quenching to form a duplex between the template and the primer. After this duplex DNA solution was dispensed in 5 μl aliquots, a KF exo^− solution (15-250 nM) diluted with enzyme dilution buffer was added in a volume of 2 μl, followed by incubation at 37° C. for 2 minutes to form a DNA-enzyme complex. The resulting solution was supplemented with 3 μl dNTP solution (any one of A, G, C, T or y) (100 μM-7 mM) and enzymatically reacted at 37° C. (1.5-20 minutes). The reaction was stopped by adding 10 μl of a 95% formamide solution containing 20 mM EDTA (stop solution) and heating at 75° C. for 3 minutes.
The reaction conditions are summarized as follows: 5 μM template-primer duplex, 3-50 nM enzyme and 30-2100 μM dNTP are used in a solution (10 μl). The solution (10 μl) contains 50 mM Tris-HCl (pH 7.5), 10 mM MgCl2, 1 mM DTT and 0.05 mg/ml BSA. The reaction is performed at 37° C. for 1.5-20 minutes.
After aliquot parts of the reaction solutions were diluted 50-fold with the stop solution, the thus diluted reaction solutions (0.5 μl) were each mixed with 3 μl loading solution (deionized formamide:50 mg/mL blue dextran solution containing 25 mM EDTA=5:1), heated at 90° C. for 2 minutes and then quenched on ice. Aliquots (about 0.5 μl) of the resulting solutions were loaded on every other lane of a sequence gel and electrophoresed. The sequence gel (36 cm WTR) has the following composition: 6 M urea, 8% polyacrylamide (acrylamide:bisacrylamide=19:1), and 0.5×TBE. The electrophoresis buffer used was 0.5×TBE. The run module used was GS Run 36C-2400. The electrophoresis time was set to about 1 hour, and peak patterns of the reaction products were analyzed and quantified using GeneScan Software (Version 3.0).
Using the peak heights of the unreacted primer fragment and single nucleotide-inserted DNA fragments, the percentage of each primer elongated by a single nucleotide was determined to calculate enzymological parameters Km and Vmax from Hanes-Woolf plots (Goodman, M. F., Creighton, S., Bloom, L. B., Petruska, J. Crit. Rev. Biochem. Mol. Biol., 28, 83-126 (1993)).

[2] = target: T3, Klenow fragment (Large Fragment E. coli DNA Polymerase I) (Escherichia coli, UniProt P00582); assay: Klenow fragment-mediated elongation reaction (replication); assay type: biochemical; conditions: substrates A; for replication with two adjacent unnatural bases in template (35-mer product): G, y, NN=vv or NN=ss
T3 construct: purchased TaKaRa
Source text: This example was intended to study selective introduction of y at a site corresponding to v in the complementary DNA strand during Klenow fragment-mediated elongation reaction, rather than single-base incorporation. The reaction primer DNA and template DNA used are shown below.
As in the case of Example 2, the primer was pre-labeled at its 5′-end using […] and then purified by gel electrophoresis. In Experiments 2 and 3, the base y is incorporated as the first base of elongation from the primer. In contrast, in this experiment, v in the template is located at a position corresponding to the severalth base elongated from the primer, and it is therefore possible to study the introduction of y at a site corresponding to v in the complementary DNA strand during elongation reaction.
The template DNA (400 nM) and the primer whose 5′-end was labeled with ^32P (FIG. 11) (400 nM), each of which had been dissolved in 2× reaction buffer (20 mM Tris-HCl pH 7.5, 14 mM MgCl2, 0.2 mM DTT), were heated at 95° C. for 3 minutes and then annealed by quenching to form a duplex. After this duplex DNA solution was dispensed in 5 μl aliquots, 2 μl of a dNTP solution (a combination shown in each lane of FIG. 12 or 13) (50 μM) and 3 μl (0.15 units) of Klenow fragment (KF exo^+; Cloned Klenow Fragment for sequencing (Large Fragment E. coli DNA Polymerase I), purchased from TaKaRa) diluted with water were added to start the enzymatic reaction at 37° C. After incubation for 3 minutes, the enzymatic reaction was stopped by adding 10 μl of a 10 M urea-containing TBE solution and heating at 75° C. for 3 minutes. The reaction conditions are summarized as follows: template/primer 200 nM; KF […] 0.015U/μl; dNTPs 10 μM; reaction at 37° C. for 3 minutes.
Aliquot parts of the reaction solutions were electrophoresed on a 15% polyacrylamide-7 M urea gel and the reaction products were analyzed with a bioimaging analyzer (BAS2500, Fuji Photo Film Co., Ltd., Japan). […]

[3] = target: T4, Klenow fragment (KF exo−), DNA polymerase I lacking 3′→5′ exonuclease activity (Escherichia coli, UniProt P00582, D355A/E357A); assay: Klenow fragment-mediated single nucleotide insertion experiment (replication); assay type: biochemical, E. coli
T4 construct: Large fragment of DNA polymerase Exonuclease-free Klenow enzyme (Cloned) (Amersham USB); purchased Amersham USB
Source text: In this example, E. coli-derived DNA polymerase I lacking 3′→5′ exonuclease activity, i.e., Klenow fragment (KF exo^−) was used to make a comparison of the efficiency for single nucleotide incorporation during replication (i.e., incorporation of 2-oxo-(1H)pyridine (y) into DNA) between v-y base pair (the present invention) and s-y base pair (control).
More specifically, Large fragment of DNA polymerase Exonuclease-free Klenow enzyme (Cloned) (Amersham USB) and 10× reaction buffer attached thereto (500 mM Tris-HCl pH 7.5, 100 mM MgCl2, 10 mM DTT, 0.5 mg/ml BSA) were used. The enzyme concentration of KF exo^− was determined using a Bio-Rad Protein Assay kit (BioRad) for each lot purchased.
The primer for use in the reaction was pre-labeled at its 5′-end using T4 polynucleotide kinase (TaKaRa) and […], and then purified by gel electrophoresis.
Reaction conditions: a mixed solution of template DNA (20 μM, 1 μl), the primer whose 5′-end was labeled with ^32P (5 μM, 4 μl) and 10× reaction buffer (1 μl) was heated at 95° C. for 3 minutes and then annealed by quenching to form a duplex between the template DNA and the primer. A Klenow fragment solution (1 μM) diluted with enzyme dilution buffer (50 mM phosphate buffer pH 7, 50% glycerol, 1 mM DTT) was added in a volume of 2 μl and incubated at 37° C. for 2 minutes, followed by addition of 2 μl dNTP solution (any one of A, G, C, T or y shown in FIG. 8) (100 μM) to start the reaction. After incubation at 37° C. for 2 minutes, 10 μl of a 10 M urea-containing TBE solution was added and heated at 75° C. for 3 minutes to stop the reaction. The reaction conditions are summarized as follows: template/primer 2 μM; KF exo^− 200 nM; dNTP 20 μM; reaction at 37° C. for 2 minutes.
Aliquot parts of the reaction solutions were electrophoresed on a 20% polyacrylamide-7 M urea gel and the reaction products were analyzed with a bioimaging analyzer (BAS2500, Fuji Photo Film Co., Ltd., Japan).

[4] = template/primer 2 μM, KF exo− 200 nM, dNTP 20 μM, 37° C., 2 minutes

T3 sequence (P00582 324-928): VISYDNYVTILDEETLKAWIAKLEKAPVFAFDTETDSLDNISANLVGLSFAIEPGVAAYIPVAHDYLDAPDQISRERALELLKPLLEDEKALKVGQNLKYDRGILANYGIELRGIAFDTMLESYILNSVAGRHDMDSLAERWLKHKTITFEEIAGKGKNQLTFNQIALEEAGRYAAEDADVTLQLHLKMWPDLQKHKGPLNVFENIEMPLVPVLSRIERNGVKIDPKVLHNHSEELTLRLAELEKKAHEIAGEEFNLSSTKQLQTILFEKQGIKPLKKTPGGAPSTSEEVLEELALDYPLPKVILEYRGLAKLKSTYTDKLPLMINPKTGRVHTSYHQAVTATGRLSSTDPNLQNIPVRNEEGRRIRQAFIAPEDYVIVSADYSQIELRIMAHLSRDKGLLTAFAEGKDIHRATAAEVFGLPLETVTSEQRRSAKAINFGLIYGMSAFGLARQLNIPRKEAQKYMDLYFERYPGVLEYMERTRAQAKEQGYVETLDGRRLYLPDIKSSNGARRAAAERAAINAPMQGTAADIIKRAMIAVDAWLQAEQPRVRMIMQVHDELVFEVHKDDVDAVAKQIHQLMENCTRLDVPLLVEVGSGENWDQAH
T4 sequence (P00582 324-928 D355A/E357A): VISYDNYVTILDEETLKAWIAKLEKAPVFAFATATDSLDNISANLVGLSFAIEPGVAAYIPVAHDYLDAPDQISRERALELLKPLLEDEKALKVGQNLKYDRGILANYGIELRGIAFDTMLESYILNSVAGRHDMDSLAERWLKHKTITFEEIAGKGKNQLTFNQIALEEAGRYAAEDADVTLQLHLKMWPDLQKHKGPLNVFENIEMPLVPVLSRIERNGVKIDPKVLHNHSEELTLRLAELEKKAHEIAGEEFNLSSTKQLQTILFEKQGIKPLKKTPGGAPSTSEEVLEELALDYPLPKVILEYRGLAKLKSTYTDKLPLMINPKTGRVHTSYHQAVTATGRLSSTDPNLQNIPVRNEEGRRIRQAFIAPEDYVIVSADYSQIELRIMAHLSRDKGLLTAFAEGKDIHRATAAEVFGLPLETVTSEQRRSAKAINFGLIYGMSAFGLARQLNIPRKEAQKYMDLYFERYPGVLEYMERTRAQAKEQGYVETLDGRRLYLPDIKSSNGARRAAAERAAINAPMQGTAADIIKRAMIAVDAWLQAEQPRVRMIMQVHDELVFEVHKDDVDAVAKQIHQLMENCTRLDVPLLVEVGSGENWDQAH
T2 sequence (P00582 324-928 D355A/E357A): as above
T1 sequence (P00573 whole entry): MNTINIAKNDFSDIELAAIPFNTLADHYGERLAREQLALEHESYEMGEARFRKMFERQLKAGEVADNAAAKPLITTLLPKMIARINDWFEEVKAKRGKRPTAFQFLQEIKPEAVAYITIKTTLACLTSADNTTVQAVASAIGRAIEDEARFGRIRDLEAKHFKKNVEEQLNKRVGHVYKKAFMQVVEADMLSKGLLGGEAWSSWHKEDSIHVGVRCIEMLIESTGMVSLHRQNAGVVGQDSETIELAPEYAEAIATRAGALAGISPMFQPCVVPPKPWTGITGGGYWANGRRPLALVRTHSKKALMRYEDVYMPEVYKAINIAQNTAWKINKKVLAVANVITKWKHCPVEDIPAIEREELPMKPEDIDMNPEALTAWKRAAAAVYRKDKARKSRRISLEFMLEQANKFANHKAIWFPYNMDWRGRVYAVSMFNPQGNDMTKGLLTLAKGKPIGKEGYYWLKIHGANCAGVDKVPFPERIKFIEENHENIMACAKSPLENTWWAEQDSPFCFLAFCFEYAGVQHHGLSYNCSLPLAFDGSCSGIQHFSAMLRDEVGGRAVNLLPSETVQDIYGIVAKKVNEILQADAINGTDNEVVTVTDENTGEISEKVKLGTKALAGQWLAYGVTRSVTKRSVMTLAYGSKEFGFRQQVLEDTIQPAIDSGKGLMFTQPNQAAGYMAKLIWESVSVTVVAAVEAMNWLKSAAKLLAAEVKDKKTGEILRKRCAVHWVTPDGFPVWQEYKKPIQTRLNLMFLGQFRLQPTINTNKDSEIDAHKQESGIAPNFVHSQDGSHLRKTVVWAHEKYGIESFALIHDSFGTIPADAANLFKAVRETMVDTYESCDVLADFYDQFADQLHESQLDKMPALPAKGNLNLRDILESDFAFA

| Compound | incorporation efficiency of the substrate y into RNA (transcription efficiency) (T7 RNA polymerase) | transcription efficiency, two y substrates incorporated into RNA (T7 RNA polymerase) | efficiency (Vmax/Km) ([1]; N′ = A) | Vmax ([1]; N′ = A, SD in parentheses) | efficiency (Vmax/Km) ([1]; N′ = C) | Vmax ([1]; N′ = C, SD in parentheses) | efficiency (Vmax/Km) ([1]; N′ = T) | Vmax ([1]; N′ = T, SD in parentheses) | efficiency (Vmax/Km) ([1]; N′ = y) | Vmax ([1]; N′ = y, SD in parentheses) | replication with two adjacent unnatural bases in template (35-mer product) [2] | also measured |
| --- | --- | --- | --- | --- | --- | --- | --- | --- | --- | --- | --- | --- |
| Nc1nc(-c2cccs2)c2[nH]cnc2n1 [s, 2-amino-6-thienylpurine, reference compound] | 50-60% | no RNA incorporating two y was obtained | 3.0 × 10^3 % min^−1M^−1 | 0.26(0.06) % min^−1 | 2.5 × 10^4 % min^−1M^−1 | 15(5) % min^−1 | 9.4 × 10^3 % min^−1M^−1 | 3.0(0.3) % min^−1 | 3.6×10^4 % min^−1M^−1 | 9.4(2.5) % min^−1 | little 35-mer product was obtained; also recorded: little incorporation of y | Km ([1]; N′ = A, SD in parentheses): 86 µM; Km ([1]; N′ = C, SD in parentheses): 590 µM; Km ([1]; N′ = T, SD in parentheses): 320 µM; Km ([1]; nucleoside triphosphate N′ = y, standard deviation in parentheses): 260 µM |
| Nc1nc(-c2nccs2)c2[nH]cnc2n1 [v, 2-amino-6-(2-thiazolyl)purine] | 96% | about 30% | 3.3 × 10^3 % min^−1M^−1 | 0.36(0.08) % min^−1 | 4.1×10^4 % min^−1M^−1 | 22(5) % min^−1 | 5.1×10^3 % min^−1M^−1 | 2.0(0.7) % min^−1 | 1.4×10^5 % min^−1M^−1 | 40(21) % min^−1 | allows replication to proceed | incorporation efficiency of y opposite v relative to y opposite s ([1]; ratio of Vmax/Km): about 4 fold; incorporation efficiency of y opposite v relative to C incorporation ([1]; selectivity, ratio of Vmax/Km): about 3 fold; incorporation efficiency of y opposite v relative to T incorporation ([1]; selectivity, ratio of Vmax/Km): ≥ 20 fold; incorporation selectivity opposite y ([3]; compared with s): comparable to the selectivity of s; incorporation of C opposite the template base [3, 4]: also incorporated although in a small amount; incorporation of y at the site corresponding to the template base [3, 4]: selectively incorporated; replication efficiency in elongation reaction (35-mer band intensity) ([2]; G and y, one unnatural base in template (NN=vT vs NN=sT)): higher replication efficiency than the s-y base pair |
